Assay results published in paper PMC6067974 (Neuropharmacology, 2018).
Read-outs that look alike come from different tables or passages of the source. Marks after values point to notes of the source that are not given here. Blank lines part the entries; values can stand above or below the compound they belong to.

Assays:
mouse A1AR [1] = target: T1, mouse A1AR (Mus musculus, UniProt Q60612); conditions: ref Carlin et al., 2017, cited from earlier work
T1 sequence (Q60612 1-326): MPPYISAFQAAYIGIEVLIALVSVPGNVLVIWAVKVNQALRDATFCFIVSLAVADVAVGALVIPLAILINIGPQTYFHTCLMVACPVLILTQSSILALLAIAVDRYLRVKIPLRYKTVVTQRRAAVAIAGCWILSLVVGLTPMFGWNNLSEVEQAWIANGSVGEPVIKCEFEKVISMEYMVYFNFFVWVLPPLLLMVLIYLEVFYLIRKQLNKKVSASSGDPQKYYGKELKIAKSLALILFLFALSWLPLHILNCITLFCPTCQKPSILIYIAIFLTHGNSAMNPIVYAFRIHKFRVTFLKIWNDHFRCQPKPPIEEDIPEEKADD

mice [2] = conditions: cited from earlier work
mice [3] = assay: Indirect calorimetry; conditions: CGS-21680 0.25 mg/kg, i.p.; C57BL/6J mice
mice [4] = conditions: intraarterial CGS-21680; wild type mice; ref Ledent et al., 1997; cited from earlier work
[5] = system: 45 human receptors, channels, and transporters; assay: PDSP off-target screen, whole panel; assay type: binding; conditions: at <10 μM
mice [6] = assay: Telemetric monitoring of Tb and physical activity in mice; assay type: in vivo, mouse; conditions: for block of PSB-0777-induced hypothermia: i.p. at -15 min, then PSB-0777 1 mg/kg i.p.
[7] = cited from earlier work
mouse A1AR [8] = target: T1, mouse A1AR; assay: Radioligand binding, mouse A1AR; conditions: for A1AR rat: mouse ratio: ratio of rat Ki to mouse Ki at A1AR
mouse A3AR [9] = target: T2, mouse A3AR (Mus musculus, UniProt Q61618); assay: Radioligand binding, mouse A3AR
T2 sequence (Q61618 1-319): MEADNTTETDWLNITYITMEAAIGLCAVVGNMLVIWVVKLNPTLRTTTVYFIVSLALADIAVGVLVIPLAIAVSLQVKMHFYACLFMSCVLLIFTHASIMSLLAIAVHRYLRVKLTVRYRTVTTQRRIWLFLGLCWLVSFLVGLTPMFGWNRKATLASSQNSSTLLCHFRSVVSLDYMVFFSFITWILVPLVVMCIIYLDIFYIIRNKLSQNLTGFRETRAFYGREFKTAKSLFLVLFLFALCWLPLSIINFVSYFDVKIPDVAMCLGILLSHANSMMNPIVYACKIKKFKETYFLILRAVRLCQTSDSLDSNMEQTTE

A2BAR [10] = conditions: read-out: Ki, A2BAR (h), human, cited from earlier work
mouse A2AAR = mouse A2AAR (Mus musculus, UniProt Q60613); assay: Radioligand binding, mouse A2AAR
[11] = target: human β3 adrenergic receptor (Homo sapiens, UniProt P13945); conditions: read-out: Ki, human β3 adrenergic receptor; PDSP screen
[12] = target: human β1 adrenergic receptor (Homo sapiens, UniProt P08588); conditions: read-out: Ki, human β1 adrenergic receptor; PDSP screen
brown adipose tissue = conditions: by stimulation of brown adipose tissue; ref Gnad et al., 2014; cited from earlier work
A1AR = conditions: cited from earlier work
A2BAR [13] = conditions: rat; ref Hide et al., 1992; cited from earlier work
mouse A3AR [14] = target: T2, mouse A3AR; conditions: read-out: mouse Ki, A3AR, ref Carlin et al., 2017; cited from earlier work
human 5HT2B receptor = human 5HT2B receptor (Homo sapiens, UniProt P41595); assay: PDSP off-target radioligand binding, 5HT2B receptor
[15] = target: serotonin transporter (SERT) (Homo sapiens, UniProt P31645); assay: PDSP off-target radioligand binding, serotonin transporter
[16] = target: M3 acetylcholine receptor (Homo sapiens, UniProt P20309); assay: PDSP off-target radioligand binding, M3 acetylcholine receptor
[17] = CGS-21680 0.01–1 mg/kg, i.p., C57BL/6J mice
[18] = read-out: mouse Ki, A1AR, mouse, current results, ± SEM
[19] = read-out: mouse Ki, A2AAR, mouse, current results, ± SEM
[20] = PSB-0777 ≤3 mg/kg, i.p., wild type mice
[21] = SCH442416 3 mg/kg, i.p., alone, data not shown
[22] = preladenant 1 mg/kg, i.p., alone, data not shown

Sequence of mouse A2AAR (Q60613 whole entry): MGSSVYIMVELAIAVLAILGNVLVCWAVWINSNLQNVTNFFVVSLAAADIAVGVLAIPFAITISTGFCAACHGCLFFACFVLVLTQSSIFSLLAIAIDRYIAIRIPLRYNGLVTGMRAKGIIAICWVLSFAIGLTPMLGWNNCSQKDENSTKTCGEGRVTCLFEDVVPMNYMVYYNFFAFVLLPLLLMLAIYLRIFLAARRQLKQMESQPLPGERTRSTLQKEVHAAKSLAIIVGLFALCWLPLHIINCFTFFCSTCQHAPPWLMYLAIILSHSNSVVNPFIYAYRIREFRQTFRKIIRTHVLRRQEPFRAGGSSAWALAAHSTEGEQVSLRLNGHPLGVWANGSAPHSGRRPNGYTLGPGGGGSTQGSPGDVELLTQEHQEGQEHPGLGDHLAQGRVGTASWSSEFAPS
Sequence of M3 acetylcholine receptor (P20309 whole entry): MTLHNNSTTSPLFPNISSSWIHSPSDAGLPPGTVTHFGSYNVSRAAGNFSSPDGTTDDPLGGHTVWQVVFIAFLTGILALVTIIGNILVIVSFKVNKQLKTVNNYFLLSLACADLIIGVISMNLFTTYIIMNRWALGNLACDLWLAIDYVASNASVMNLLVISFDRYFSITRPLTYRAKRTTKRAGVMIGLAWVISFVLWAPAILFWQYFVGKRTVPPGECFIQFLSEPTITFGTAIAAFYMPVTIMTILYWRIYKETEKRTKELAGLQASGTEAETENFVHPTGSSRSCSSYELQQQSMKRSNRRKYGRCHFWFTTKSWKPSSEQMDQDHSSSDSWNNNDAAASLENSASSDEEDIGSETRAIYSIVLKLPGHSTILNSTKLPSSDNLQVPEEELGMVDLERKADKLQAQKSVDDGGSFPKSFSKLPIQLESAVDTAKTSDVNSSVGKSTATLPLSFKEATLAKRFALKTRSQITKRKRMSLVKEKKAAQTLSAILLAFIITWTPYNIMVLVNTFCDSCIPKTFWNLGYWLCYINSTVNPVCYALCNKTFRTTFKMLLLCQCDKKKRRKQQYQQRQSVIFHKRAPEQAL
Sequence of serotonin transporter (SERT) (P31645 whole entry): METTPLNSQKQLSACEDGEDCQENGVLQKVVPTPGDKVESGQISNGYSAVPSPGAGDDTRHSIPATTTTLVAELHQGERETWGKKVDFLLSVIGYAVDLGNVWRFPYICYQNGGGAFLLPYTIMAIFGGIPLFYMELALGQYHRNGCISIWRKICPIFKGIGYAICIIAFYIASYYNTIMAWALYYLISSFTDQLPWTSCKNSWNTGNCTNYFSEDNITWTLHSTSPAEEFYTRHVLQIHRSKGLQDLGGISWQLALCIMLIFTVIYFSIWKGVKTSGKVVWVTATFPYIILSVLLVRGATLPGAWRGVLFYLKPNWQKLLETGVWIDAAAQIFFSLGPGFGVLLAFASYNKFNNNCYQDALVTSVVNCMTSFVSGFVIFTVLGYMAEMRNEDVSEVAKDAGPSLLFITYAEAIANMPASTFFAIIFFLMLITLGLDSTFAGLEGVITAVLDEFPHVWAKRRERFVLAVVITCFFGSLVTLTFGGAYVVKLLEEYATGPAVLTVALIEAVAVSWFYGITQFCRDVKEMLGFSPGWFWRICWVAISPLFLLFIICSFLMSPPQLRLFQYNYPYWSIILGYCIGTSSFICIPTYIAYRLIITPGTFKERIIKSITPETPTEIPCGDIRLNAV
Sequence of human β3 adrenergic receptor (P13945 whole entry): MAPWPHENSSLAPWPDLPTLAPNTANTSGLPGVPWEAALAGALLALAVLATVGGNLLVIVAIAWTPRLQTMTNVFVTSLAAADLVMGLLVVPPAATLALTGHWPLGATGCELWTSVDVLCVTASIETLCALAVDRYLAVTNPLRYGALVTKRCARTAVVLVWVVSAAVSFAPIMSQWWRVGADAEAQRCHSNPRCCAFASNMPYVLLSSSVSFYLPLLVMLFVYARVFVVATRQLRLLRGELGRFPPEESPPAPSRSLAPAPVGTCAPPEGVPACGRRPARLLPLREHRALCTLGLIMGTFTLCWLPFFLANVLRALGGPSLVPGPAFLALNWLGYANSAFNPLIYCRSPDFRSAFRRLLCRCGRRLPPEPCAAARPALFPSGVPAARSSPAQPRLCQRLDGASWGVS
Sequence of human β1 adrenergic receptor (P08588 whole entry): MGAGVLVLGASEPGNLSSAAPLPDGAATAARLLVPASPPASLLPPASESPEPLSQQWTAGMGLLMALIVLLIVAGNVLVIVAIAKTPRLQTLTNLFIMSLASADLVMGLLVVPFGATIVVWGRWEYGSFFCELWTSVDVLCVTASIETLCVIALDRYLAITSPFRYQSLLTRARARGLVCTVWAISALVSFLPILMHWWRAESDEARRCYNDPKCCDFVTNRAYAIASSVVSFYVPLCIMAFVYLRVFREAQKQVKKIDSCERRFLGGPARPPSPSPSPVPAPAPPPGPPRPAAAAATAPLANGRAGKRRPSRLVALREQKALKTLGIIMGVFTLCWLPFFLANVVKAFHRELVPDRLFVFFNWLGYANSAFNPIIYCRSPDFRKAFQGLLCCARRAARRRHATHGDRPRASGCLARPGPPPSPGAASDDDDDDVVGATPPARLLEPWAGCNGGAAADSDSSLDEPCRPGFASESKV
Sequence of human 5HT2B receptor (P41595 whole entry): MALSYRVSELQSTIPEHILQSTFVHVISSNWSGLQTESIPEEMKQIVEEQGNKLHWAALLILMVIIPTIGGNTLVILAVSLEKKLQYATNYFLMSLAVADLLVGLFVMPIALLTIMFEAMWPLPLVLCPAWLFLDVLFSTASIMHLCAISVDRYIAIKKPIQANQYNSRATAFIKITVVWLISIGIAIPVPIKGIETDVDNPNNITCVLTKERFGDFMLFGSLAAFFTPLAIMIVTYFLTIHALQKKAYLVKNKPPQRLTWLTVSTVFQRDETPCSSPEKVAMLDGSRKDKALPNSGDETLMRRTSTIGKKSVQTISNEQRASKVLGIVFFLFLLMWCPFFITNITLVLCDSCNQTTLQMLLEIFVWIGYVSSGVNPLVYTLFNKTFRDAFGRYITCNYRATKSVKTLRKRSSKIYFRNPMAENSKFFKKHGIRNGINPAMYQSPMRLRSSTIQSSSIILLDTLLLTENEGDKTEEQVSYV

SMILES: OC[C@H]1O[C@@H](n2cnc3c(NC4CCCC4)ncnc32)[C@H](O)[C@@H]1O [N^6-cyclopentyladenosine]
advantage in binding affinity (A1AR vs A3AR) (mouse A1AR [1]; A1AR vs A3AR): 2000 fold

SMILES: CCNC(=O)[C@H]1O[C@@H](n2cnc3c(N)nc(NCCc4ccc(CCC(=O)O)cc4)nc32)[C@H](O)[C@@H]1O [CGS-21680, 2-[p-(2-carboxyethyl)phenethylamino]-5′-N-ethylcarboxamidoadenosine]
hypothermia (mice [2]; CGS-21680, high i.c.v. dose, ref Anderson et al., 1994): mild hypothermia
hypothermia (mice [2]; CGS-21680, peripheral dosing, ref Eisner et al., 2017): mild hypothermia
food intake (mice [3]): reduced food intake
metabolic rate (total energy expenditure) (mice [3]): marked reduction in metabolic rate
time of Tb nadir (mice [3]): ~ 65 minutes
time of energy expenditure nadir (mice [3]): ~ 26 minutes
blood pressure (mice [4]): caused hypotension
off-target activities detected [5]: none
Tb response (hypothermia) (mice [6]; CGS-21680 0.01 mg/kg i.c.v., C57BL/6J mice): No hypothermia
Tb response (hypothermia) (mice [6]; CGS-21680 0.5 mg/kg, i.p., Adora1−/−;Adora3−/− mice): intact
Tb response (hypothermia) (mice [6]; CGS-21680 0.5 mg/kg, i.p., Adora2a−/− mice): did not cause hypothermia
Tb response (hypothermia) (mice [6]; CGS-21680 0.5 mg/kg, i.p., KitW−sh/W−sh mice (lack mast cells)): showed a hypothermic response
Tb response (hypothermia) (mice [6]; [17]): dose-dependent hypothermia
physical activity (mice [6]; [17]): hypoactivity
brain penetrant ([7]; ref Nikodijevic et al., 1990): no ^d

SMILES: CNC(=O)c1cnn(-c2nc(N)c3ncn([C@@H]4O[C@H](CO)[C@@H](O)[C@H]4O)c3n2)c1 [regadenoson, 1-[6-amino-9-[(2R,3R,4S,5R)-3,4-dihydroxy-5-(hydroxymethyl)oxolan-2-yl]purin-2-yl]-N-methylpyrazole-4-carboxamide]
Ki (mouse A1AR [8]): 0.00775 ± 5e-05 µM
binding to A1AR more tightly than to A2AAR (mouse A1AR [8]; mouse binding, Table 1): 10 fold
binding to mouse A1AR better than human A1AR (mouse A1AR [8]; mouse vs human A1AR (human value Gao et al., 2001)): > 1000 fold
inhibition at 10 µM (mouse A3AR [9]; read-out: % inhibition at 10 μM, mouse A3AR): 7 ± 2%
Ki (A2BAR [10]; ref Gao et al., 2001): > 100 µM
Ki (mouse A2AAR): 0.0772 ± 0.0063 µM

SMILES: N.Nc1nc(SCCc2ccc(S(=O)(=O)O)cc2)nc2c1ncn2[C@@H]1O[C@H](CO)[C@@H](O)[C@H]1O [PSB-0777, 4-[2-[(6-Amino-9-b-D-ribofuranosyl-9H-purin-2-yl)thio]ethyl]benzenesulfonic acid ammonium salt]
A1AR rat: mouse ratio (mouse A1AR [8]): >500
Ki (mouse A1AR [8]; [18]): 0.0184 ± 0.0011 µM
Ki [11]: 3.3 µM
Ki [12]: 4.4 µM
energy expenditure (brown adipose tissue): increased energy expenditure
% inhibition at 10 μM, mouse A3AR (mouse A3AR [9]; mouse, 10 μM, current results, ± SEM): 26 ± 1% ^e
Ki (A1AR; read-out: rat Ki, A1AR, ref El-Tayeb et al., 2011): ≥ 10 µM
Ki (A2BAR [10]; ref El-Tayeb et al., 2011): > 10 µM
Ki (mouse A2AAR; [19]): 0.193 ± 0.028 µM
Tb response (hypothermia) (mice [6]; PSB-0777 i.p., Adora2a−/− mice): abolished
Tb response (hypothermia) (mice [6]; [20]): dose-dependent hypothermia
physical activity (mice [6]; [20]): hypoactivity

binding to mouse A1AR better than rat A1AR (mouse A1AR [8]; mouse vs rat A1AR): ~ 100 fold
A1AR rat: mouse ratio (mouse A1AR [8]): 95
Ki (mouse A1AR [8]; [18]): 0.00417 ± 0.00015 µM
Ki (mouse A3AR [9]; read-out: mouse Ki, A3AR, mouse, current results, ± SEM): 0.0551 ± 0.0043 µM
Ki (mouse A2AAR; [19]): 0.00357 ± 0.00022 µM
SMILES: CCNC(=O)[C@H]1O[C@@H](n2cnc3c(N)nc(NCCc4ccc(CCC(=O)NCCN)cc4)nc32)[C@H](O)[C@@H]1O [APEC, 2-[[2-[4-[2-(2-aminoethyl)-aminocarbonyl]ethyl]phenyl]ethylamino]-5′-N-ethyl-carboxamidoadenosine]
A2BAR (r) activity (A2BAR [13]): inactive (r) ^h
Ki (A1AR; read-out: rat Ki, A1AR, ref Kim et al., 1994): 0.4 µM
Tb response (mice [6]; APEC 1.7 μg/kg i.p.): blunting the handling hyperthermia
Tb response (hypothermia) (mice [6]; APEC 50 μg/kg i.p.): robust hypothermia
physical activity (mice [6]; APEC 50 μg/kg i.p.): hypoactivity
Tb response (hypothermia) (mice [6]; APEC i.p., Adora1−/−;Adora3−/− mice): attenuated
Tb response (hypothermia) (mice [6]; APEC i.p., Adora2a−/− mice): attenuated
Tb response (hypothermia) (mice [6]; APEC i.p., Adora2b−/− mice): fully intact

SMILES: COc1ccc(CCCn2ncc3c2nc(N)n2nc(-c4ccco4)nc32)cc1 [SCH442416, 2-(2-furyl)-7-[3-(4-methoxyphenyl)propyl]-7H-pyrazolo[4,3-e][1,2,4]triazolo[1,5-c]pyrimidin-5-amine]
Ki (mouse A3AR [14]): > 10 µM
Ki (human 5HT2B receptor): 0.91 µM
Ki (mouse A1AR [1]; read-out: mouse Ki, A1AR, mouse): 0.765 µM
Ki [15]: 6.1 µM
Ki (A1AR; read-out: rat Ki, A1AR, ref Todde et al., 2000): 1.81 µM
Ki (A2BAR [10]; ref Todde et al., 2000): > 10 µM
Ki [16]: 6.8 µM
block of PSB-0777-induced hypothermia (mice [6]; SCH442416 0.6 mg/kg): largely blocked
physical activity (mice [6]; SCH442416 0.6 mg/kg, i.p., by itself, p=0.078): trended to increase activity
Tb (mice [6]; SCH442416 0.6 mg/kg, i.p., by itself, p=0.10): trended to increase
Tb (mice [6]; [21]): increase in Tb
locomotor activity (mice [6]; [21]): increased locomotor activity
brain penetrant ([7]; ref Todde et al., 2000): yes ^j

SMILES: COCCOc1ccc(N2CCN(CCn3ncc4c3nc(N)n3nc(-c5ccco5)nc43)CC2)cc1 [preladenant]
Tb (mice [6]; [22]): increase in Tb
locomotor activity (mice [6]; [22]): increased locomotor activity

SMILES: CCN(CC)CC.Nc1nc2c(cnn2CCCc2ccc(OCc3ccc(S(=O)(=O)O)cc3)cc2)c2nc(-c3ccco3)nn12 [MRS7352, 4-((4-(3-(5-amino-2-(furan-2-yl)-7H-pyrazolo[4,3-e][1,2,4]triazolo[1,5-c]pyrimidin-7-yl)propyl)phenoxy)methyl)benzenesulfonate triethylammonium salt]
physical activity (mice [6]; MRS7352 3 mg/kg, i.p.): without affecting physical activity
block of PSB-0777-induced hypothermia (mice [6]; MRS7352 3 mg/kg): completely blocked

SMILES: Nc1ncnc2c1ncn2[C@@H]1O[C@H](CO)[C@@H](O)[C@H]1O [adenosine]
Tb response (hypothermia) (mice [6]; adenosine 100 mg/kg, i.p., Adora1−/−;Adora3−/− mice): robust hypothermia
